Results on 13 molecules are retold here after patent US20100215618A1, “NOVEL COMPOUNDS - 644” (Arrow Therapeutics Limited, priority 2009, published 2010).

Read-outs that look alike come from different tables or passages of the source.

The subject of assay [1] is HCV genotype 1a replicon cells Htat2ANeo. Description: 1a Replicon Assay (cell-based anti-NS5a ELISA). Particulars: Hepatitis C virus, 72 h. A digest of the protocol:
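HCV 1a Htat2ANeo replicon cells (Et2AN control cells) exposed to compound for 72 h at 37° C without G418/blasticidin. NS5a quantified by cell-based ELISA (anti-NS5a, HRP/OPD, A490); IC50 from percentage reduction versus untreated control. Cytotoxicity TD50 by Cell Titre Blue fluorescence (ex 570/em 590 nm) versus DMSO controls.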

The test system of assay [2] is HCV replicon cells Huh 9B (genotype 1b). Briefly: 1b Replicon Assay (luciferase readout). In kind it is cell-based. As to conditions: Hepatitis C virus, Huh 9B replicon cells, 72 h, luciferase activity. For orientation: Replicon systems follow genome replication, usually without infectious particles.
[3] abbreviates: read-out: pIC50 1a Replicon (converted).
Setting [4] is: read-out: pIC50 1b Replicon (converted).

For `CC(C)(C)OC(=O)N[C@@H](C(=O)N1CCC[C@H]1c1ncc(-c2ccc(-c3ccc(C(=O)Nc4ccc(CN5CCS(=O)(=O)CC5)cc4)cc3)cc2)[nH]1)c1ccccc1` [Example 2, Tert-butyl N-[(1R)-2-[(2S)-2-[5-[4-[4-[[4-[(1,1-dioxo-1,4-thiazinan-4-yl)methyl]phenyl]carbamoyl]phenyl]phenyl]-1H-imidazol-2-yl]pyrrolidin-1-yl]-2-oxo-1-phenyl-ethyl]carbamate], the IC50 in assay [1] (read-out: HCV IC50 Elisa 1a) is 56 nM; in assay [1] (setting [3]), 56.2 nM; in assay [2] (read-out: HCV IC50 1b Replicon), 0.02 nM; in assay [2] (setting [4]) it was 0.0204 nM.
For `COC(=O)N[C@H](C(=O)N1CCC[C@H]1c1ncc(-c2ccc(-c3ccc(C(=O)Nc4ccc(CN5CCS(=O)(=O)CC5)cc4)cc3)cc2)[nH]1)C(C)C` [Example 3, Methyl N-[(1S)-1-[(2S)-2-[5-[4-[4-[[4-[(1,1-dioxo-1,4-thiazinan-4-yl)methyl]phenyl]carbamoyl]phenyl]phenyl]-1H-imidazol-2-yl]pyrrolidine-1-carbonyl]-2-methyl-propyl]carbamate], in that order: 6.46 nM, 6.46 nM, 0.34 nM and 0.339 nM.
For `COC(=O)N[C@H](C(=O)N1CCC[C@H]1c1ncc(-c2ccc(-c3ccc(C(=O)Nc4ccc(CN5CCS(=O)(=O)CC5)cc4)cc3)cc2)[nH]1)C(C)(C)C` [Example 5, Methyl N-[(1S)-1-[(2S)-2-[5-[4-[4-[[4-[(1,1-dioxo-1,4-thiazinan-4-yl)methyl]phenyl]carbamoyl]phenyl]phenyl]-1H-imidazol-2-yl]pyrrolidine-1-carbonyl]-2,2-dimethyl-propyl]carbamate], in that order: 33.1 nM, 33.1 nM, 0.73 nM and 0.741 nM.
On to `COC(=O)N[C@H](C(=O)N1CCC[C@H]1c1ncc(-c2ccc(-c3ccc(C(=O)Nc4ccc(CN5CCS(=O)(=O)CC5)cc4)cc3)cc2)[nH]1)c1ccccc1` [Example 6, Methyl N-[(1S)-2-[(2S)-2-[5-[4-[4-[[4-[(1,1-dioxo-1,4-thiazinan-4-yl)methyl]phenyl]carbamoyl]phenyl]phenyl]-1H-imidazol-2-yl]pyrrolidin-1-yl]-2-oxo-1-phenyl-ethyl]carbamate], for which the IC50 in assay [1] (read-out: HCV IC50 Elisa 1a) is 33.3 nM; in assay [1] (setting [3]) it was 33.1 nM; in assay [2] (read-out: HCV IC50 1b Replicon), 0.04 nM; in assay [2] (setting [4]), 0.0417 nM.
In the case of `COC(=O)N[C@@H](C(=O)N1CCC[C@H]1c1ncc(-c2ccc(-c3ccc(C(=O)Nc4ccc(CN5CCS(=O)(=O)CC5)cc4)cc3)cc2)[nH]1)c1ccccc1` [Example 7, Methyl N-[(1R)-2-[(2S)-2-[5-[4-[4-[[4-[(1,1-dioxo-1,4-thiazinan-4-yl)methyl]phenyl]carbamoyl]phenyl]phenyl]-1H-imidazol-2-yl]pyrrolidin-1-yl]-2-oxo-1-phenyl-ethyl]carbamate], the IC50 in assay [1] (read-out: HCV IC50 Elisa 1a) was 32 nM; in assay [1] (setting [3]) it was 32.4 nM; in assay [2] (read-out: HCV IC50 1b Replicon), 0.05 nM; in assay [2] (setting [4]) it was 0.0468 nM.
For the molecule `CCN(CC)[C@@H](C(=O)N1CCC[C@H]1c1ncc(-c2ccc(-c3ccc(C(=O)Nc4ccc(CN5CCS(=O)(=O)CC5)cc4)cc3)cc2)[nH]1)c1ccccc1` [Example 8, 4-[4-[2-[(2S)-1-[(2R)-2-(diethylamino)-2-phenyl-acetyl]pyrrolidin-2-yl]-1H-imidazol-5-yl]phenyl]-N-[4-[(1,1-dioxo-1,4-thiazinan-4-yl)methyl]phenyl]benzamide], the IC50 is 4.75 nM in assay [1] (read-out: HCV IC50 Elisa 1a), 4.79 nM in assay [1] (setting [3]), 0.05 nM in assay [2] (read-out: HCV IC50 1b Replicon) and 0.0468 nM in assay [2] (setting [4]).
For `CN(C)[C@@H](C(=O)N1CCC[C@H]1c1ncc(-c2ccc(-c3ccc(C(=O)Nc4ccc(CN5CCS(=O)(=O)CC5)cc4)cc3)cc2)[nH]1)c1ccccc1` [Example 9, 4-[4-[2-[(2S)-1-[(2R)-2-(dimethylamino)-2-phenyl-acetyl]pyrrolidin-2-yl]-1H-imidazol-5-yl]phenyl]-N-[4-[(1,1-dioxo-1,4-thiazinan-4-yl)methyl]phenyl]benzamide], in that order: 13.2 nM, 13.2 nM, 0.1 nM and 0.1 nM.
`COC(=O)N[C@@H](CC(C)C)C(=O)N1CCC[C@H]1c1ncc(-c2ccc(-c3ccc(C(=O)Nc4ccc(CN5CCS(=O)(=O)CC5)cc4)cc3)cc2)[nH]1` [Example 14, Methyl N-[(1S)-1-[(2S)-2-[5-[4-[4-[[4-[(1,1-dioxo-1,4-thiazinan-4-yl)methyl]phenyl]carbamoyl]phenyl]phenyl]-1H-imidazol-2-yl]pyrrolidine-1-carbonyl]-3-methyl-butyl]carbamate]: the IC50 in assay [1] (read-out: HCV IC50 Elisa 1a) is 15.7 nM; in assay [1] (setting [3]), 15.8 nM; in assay [2] (read-out: HCV IC50 1b Replicon) it was 0.36 nM; in assay [2] (setting [4]), 0.355 nM.
As to `CC[C@H](C)[C@H](NC(=O)OC)C(=O)N1CCC[C@H]1c1ncc(-c2ccc(-c3ccc(C(=O)Nc4ccc(CN5CCS(=O)(=O)CC5)cc4)cc3)cc2)[nH]1` [Example 16, Methyl N-[(1S,2S)-1-[(2S)-2-[5-[4-[4-[[4-[(1,1-dioxo-1,4-thiazinan-4-yl)methyl]phenyl]carbamoyl]phenyl]phenyl]-1H-imidazol-2-yl]pyrrolidine-1-carbonyl]-2-methyl-butyl]carbamate], the IC50 in assay [1] (read-out: HCV IC50 Elisa 1a) was 8.39 nM; in assay [1] (setting [3]) it was 8.32 nM; in assay [2] (read-out: HCV IC50 1b Replicon), 0.13 nM; in assay [2] (setting [4]) it was 0.132 nM.
`COC(=O)N[C@H](C(=O)N1CCC[C@@H]1c1ncc(-c2ccc(-c3ccc(C(=O)Nc4ccc(CN5CCS(=O)(=O)CC5)cc4)cc3)cc2)[nH]1)C(C)C` [Example 20, Methyl N-[(1S)-1-[(2R)-2-[5-[4-[4-[[4-[(1,1-dioxo-1,4-thiazinan-4-yl)methyl]phenyl]carbamoyl]phenyl]phenyl]-1H-imidazol-2-yl]pyrrolidine-1-carbonyl]-2-methyl-propyl]carbamate]: the IC50 in assay [1] (read-out: HCV IC50 Elisa 1a) was 1470 nM; in assay [1] (setting [3]), 1480 nM; in assay [2] (read-out: HCV IC50 1b Replicon), 319 nM; in assay [2] (setting [4]), 316 nM.
For `CCCS(=O)(=O)N1CCN(Cc2ccc(NC(=O)c3ccc(-c4ccc(-c5cnc([C@@H]6CCCN6C(=O)[C@@H](NC(=O)OC)C(C)C)[nH]5)cc4)cc3)cc2)CC1` [Example 40, Methyl N-[(1S)-2-methyl-1-[(2S)-2-[5-[4-[4-[[4-[(4-propylsulfonylpiperazin-1-yl)methyl]phenyl]carbamoyl]phenyl]phenyl]-1H-imidazol-2-yl]pyrrolidine-1-carbonyl]propyl]carbamate], in that order: 42.6 nM, 42.7 nM, 0.1 nM and 0.1 nM.
For `COC(=O)N[C@H](C(=O)N1CCOC[C@H]1c1ncc(-c2ccc(-c3ccc(C(=O)Nc4ccc(CN5CCS(=O)(=O)CC5)cc4)cc3)cc2)[nH]1)c1ccccc1` [Example 47, Methyl N-[(1S)-2-[(3R)-3-[5-[4-[4-[[4-[(1,1-dioxo-1,4-thiazinan-4-yl)methyl]phenyl]carbamoyl]phenyl]phenyl]-1H-imidazol-2-yl]morpholin-4-yl]-2-oxo-1-phenyl-ethyl]carbamate], in that order: 73.3 nM, 74.1 nM, 0.28 nM and 0.275 nM.
On the same counts, the results for `COC(=O)N[C@H](C(=O)N1CCC[C@H]1c1ncc(-c2ccc(-c3ccc(C(=O)Nc4ccc(CN5CCS(=O)(=O)CC5)cc4)cc3)c(C)c2)[nH]1)C(C)C` [Example 54, Methyl N-[(1S)-1-[(2S)-2-[5-[4-[4-[[4-[(1,1-dioxo-1,4-thiazinan-4-yl)methyl]phenyl]carbamoyl]phenyl]-3-methyl-phenyl]-1H-imidazol-2-yl]pyrrolidine-1-carbonyl]-2-methyl-propyl]carbamate] are 9.38 nM, 9.33 nM, 0.21 nM and 0.209 nM.
